Here are results for 19 compounds from patent publication US20130184257A1, “PIPERIDINYL-SUBSTITUTED LACTAMS AS GPR119 MODULATORS” (priority 2010, published 2013).

For the assay, the system named is modified version of the GPR119 receptor (94% identity to human receptor) stably expressed in HEK-293 cells. As to the kind of experiment: cAMP Production Assay (LANCE cAMP kit, TR-FRET). Type of assay: cell-based. Conditions: for cAMP production in HEK-293 cells: HEK-293 cells expressing modified GPR119, test compounds 0.2 nM to 10 μM, one-hour incubation at ambient temperature; for Fold over baseline: increase in cAMP relative to basal levels, 1.5-fold or greater = agonist activity. As for the experimental part:
The assay utilized HEK-293 cells that stably express a modified version of the GPR119 receptor (94% identity to human receptor), under the control of a CMV promoter containing a tet-on element for tetracycline-inducible expression. GPR119 agonist-induced cyclic AMP (cAMP) production was measured in this cell line using the LANCE cAMP kit (Perkin Elmer, Waltham, Mass.). To generate a working stock of cells for the assay, cells were treated overnight with 1 μg/mL doxycycline at 37° C. in the presence of 5% CO2 to induce receptor expression. Cells were then harvested by enzymatic dissociation with 0.05% trypsin, resuspended in freezing medium (DMEM growth medium with 10% each of fetal bovine serum and DMSO), aliquoted and frozen at −80° C. On the day of the assay, frozen cells were thawed, washed 1× in PBS and resuspended in Hank's buffered salt solution (HBSS) containing 5 mM HEPES, 0.1% BSA and Alexa Fluor 647-conjugated anti-cAMP antibody (diluted 1:100). The cell suspension was then transferred to a Proxiplate Plus white 384-well assay plate (Perkin-Elmer) at 2000 cells/well. Test compounds at final concentrations ranging from 0.2 nM to 10 μM were added to the assay plate, followed by a one-hour incubation at ambient temperature (volume=10 μL/well). DMSO concentration was held constant at 0.5%. After incubation with test compounds, 10 μL of a detergent buffer containing a biotinylated cAMP/Europium-conjugated streptavidin complex (Europium-labeled cAMP tracer) were added to each well on the assay plate, followed by a 2-hour incubation at ambient temperature. During this incubation cAMP released from lysed cells competes with the Europium-labeled cAMP tracer for binding to the Alexa Fluor 647-conjugated antibody. […] Cellular cAMP levels were then determined by interpolation of raw signal data using a cAMP standard curve. Compounds were determined to have agonist activity if they stimulated a 1.5-fold or greater increase in cAMP relative to basal levels.

As for `CS(=O)(=O)c1cc(F)c(O[C@@H]2CCN(C3CCN(c4noc(C(F)(F)F)n4)CC3)C2=O)cc1F` (single isomer, unassigned) [Example 66], the “cAMP production in HEK-293 cells” value worked out at 8.7 nmol and the Fold over baseline came out at 2.7.

Regarding `CC(C)c1noc(N2CCC(N3CC[C@H](Oc4cc(F)c(S(C)(=O)=O)cc4F)C3=O)CC2)n1` [Example 1, (S)-3-(2,5-difluoro-4-(methylsulfonyl)phenoxy)-1-(1-(3-isopropyl-1,2,4-oxadiazol-5-yl)piperidin-4-yl)pyrrolidin-2-one], the “cAMP production in HEK-293 cells” value worked out at 25.0 nmol and the Fold over baseline amounted to 4.6.

Consider `CC(C)c1noc(N2CCC(N3CC[C@H](Oc4ccc(S(C)(=O)=O)cc4F)C3=O)CC2)n1` [Example 2, (S)-3-(2-fluoro-4-(methylsulfonyl)phenoxy)-1-(1-(3-isopropyl-1,2,4-oxadiazol-5-yl)piperidin-4-yl)pyrrolidin-2-one], for which the “cAMP production in HEK-293 cells” value amounted to 27.4 nmol and the Fold over baseline is 5.6.

For the compound `CC(C)(C)c1noc(N2CCC(N3CC[C@H](Oc4cc(F)c(S(C)(=O)=O)cc4F)C3=O)CC2)n1` [Example 3, (S)-1-(1-(3-tert-butyl-1,2,4-oxadiazol-5-yl)piperidin-4-yl)-3-(2,5-difluoro-4-(methylsulfonyl)phenoxy)pyrrolidin-2-one], the “cAMP production in HEK-293 cells” value was determined as 21.7 nmol and the Fold over baseline was determined as 3.3.

For `CC(C)c1noc(N2CCC(N3CC[C@@H](Oc4cc(F)c(S(C)(=O)=O)cc4F)C3=O)CC2)n1` [Example 4, (R)-3-(2,5-difluoro-4-(methylsulfonyl)phenoxy)-1-(1-(3-isopropyl-1,2,4-oxadiazol-5-yl)piperidin-4-yl)pyrrolidin-2-one], the “cAMP production in HEK-293 cells” value turned out to be 18.7 nmol and the Fold over baseline was found to be 3.9.

For `CC(C)(C)c1noc(N2CCC(N3CC[C@H](Oc4ccc(S(C)(=O)=O)cc4F)C3=O)CC2)n1` [Example 5, (S)-1-(1-(3-tert-butyl-1,2,4-oxadiazol-5-yl)piperidin-4-yl)-3-(2-fluoro-4-(methylsulfonyl)phenoxy)pyrrolidin-2-one], the “cAMP production in HEK-293 cells” value is 22.7 nmol and the Fold over baseline worked out at 4.8.

As to `CCc1noc(N2CCC(N3CC[C@H](Oc4ccc(S(C)(=O)=O)cc4F)C3=O)CC2)n1` [Example 6, (S)-1-(1-(3-ethyl-1,2,4-oxadiazol-5-yl)piperidin-4-yl)-3-(2-fluoro-4-(methylsulfonyl)phenoxy)pyrrolidin-2-one], the “cAMP production in HEK-293 cells” value worked out at 22.5 nmol and the Fold over baseline came to 4.9.

Regarding `CC(C)c1noc(N2CCC(N3CCC[C@H](Nc4ccc(S(C)(=O)=O)cc4F)C3=O)CC2)n1` [Example 7, (S)-3-(2-fluoro-4-(methylsulfonyl)phenylamino)-1′-(3-isopropyl-1,2,4-oxadiazol-5-yl)-1,4′-bipiperidin-2-one], the “cAMP production in HEK-293 cells” value came out at 27.8 nmol and the Fold over baseline stood at 5.7.

For `CC(C)c1noc(N2CCC(N3CC[C@H](Nc4ccc(S(C)(=O)=O)cc4F)C3=O)CC2)n1` [Example 8, (S)-3-(2-fluoro-4-(methylsulfonyl)phenylamino)-1-(1-(3-isopropyl-1,2,4-oxadiazol-5-yl)piperidin-4-yl)pyrrolidin-2-one], the “cAMP production in HEK-293 cells” value is 25.0 nmol and the Fold over baseline is listed as 4.9.

`CS(=O)(=O)c1cc(F)c(N[C@H]2CCCN(C3CCN(c4nc(C(F)(F)F)no4)CC3)C2=O)cc1F` [Example 9, (S)-3-(2,5-difluoro-4-(methylsulfonyl)phenylamino)-1′-(3-trifluoromethyl-1,2,4-oxadiazol-5-yl)-1,4′-bipiperidin-2-one]: the “cAMP production in HEK-293 cells” value is 11.4 nmol and the Fold over baseline is 3.5.

In the case of `CS(=O)(=O)c1cc(F)c(N[C@H]2CCCN(C3CCN(c4nc(C(F)(F)F)no4)CC3)C2=O)c(F)c1` [Example 10, (S)-3-(2,6-difluoro-4-(methylsulfonyl)phenylamino)-1′-(3-trifluoromethyl-1,2,4-oxadiazol-5-yl)-1,4′-bipiperidin-2-one], the “cAMP production in HEK-293 cells” value turned out to be 8.3 nmol and the Fold over baseline is 2.9.

Turning to `CS(=O)(=O)c1cc(F)c(O[C@H]2CCN(C3CCN(c4nc(C(F)(F)F)no4)CC3)C2=O)cc1F` [Example 11, (S)-1-(1-(3-trifluoromethyl-1,2,4-oxadiazol-5-yl)piperidin-4-yl)-3-(2,5-difluoro-4-(methylsulfonyl)phenoxy)pyrrolidin-2-one], the “cAMP production in HEK-293 cells” value was determined as 13.5 nmol and the Fold over baseline came to 4.0.

With `CC(C)c1nc(N2CCC(N3CCC[C@H](Nc4c(F)cc(S(C)(=O)=O)cc4F)C3=O)CC2)no1` [Example 12, (S)-3-(2,6-difluoro-4-(methylsulfonyl)phenylamino)-1′-(5-isopropyl-1,2,4-oxadiazol-3-yl)-1,4′-bipiperidin-2-one], the “cAMP production in HEK-293 cells” value is 16.1 nmol and the Fold over baseline is reported as 3.4.

As to `CS(=O)(=O)c1ccc(N[C@H]2CCN(C3CCN(c4noc(C(Cl)(Cl)Cl)n4)CC3)C2=O)c(F)c1` [Example 13, (S)-3-(2-fluoro-4-(methylsulfonyl)phenylamino)-1-(1-(5-(trichloromethyl)-1,2,4-oxadiazol-3-yl)piperidin-4-yl)pyrrolidin-2-one], the “cAMP production in HEK-293 cells” value came to 17.3 nmol and the Fold over baseline amounted to 3.0.

As for `CC(C)c1nc(N2CCC(N3CCC[C@H](Nc4ccc(S(C)(=O)=O)cc4F)C3=O)CC2)no1` [Example 14, (S)-3-(2-fluoro-4-(methylsulfonyl)phenylamino)-1′-(5-isopropyl-1,2,4-oxadiazol-3-yl)-1,4′-bipiperidin-2-one], the “cAMP production in HEK-293 cells” value was 18.9 nmol and the Fold over baseline turned out to be 3.5.

As to `CC(C)c1nc(N2CCC(N3CC[C@H](Nc4ccc(S(C)(=O)=O)cc4F)C3=O)CC2)no1` [Example 15, (S)-3-(2-fluoro-4-(methylsulfonyl)phenylamino)-1-(1-(5-isopropyl-1,2,4-oxadiazol-3-yl)piperidin-4-yl)pyrrolidin-2-one], the “cAMP production in HEK-293 cells” value is 20.8 nmol and the Fold over baseline was 3.8.

For `CS(=O)(=O)c1ccc(N[C@H]2CCN(C3CCN(c4noc(C(F)(F)F)n4)CC3)C2=O)c(F)c1` [Example 16, (S)-3-(2-fluoro-4-(methylsulfonyl)phenylamino)-1-(1-(5-(trifluoromethyl)-1,2,4-oxadiazol-3-yl)piperidin-4-yl)pyrrolidin-2-one], the “cAMP production in HEK-293 cells” value turned out to be 17.0 nmol and the Fold over baseline was found to be 4.3.

Regarding `CS(=O)(=O)c1cc(F)c(O[C@H]2CCN(C3CCN(c4noc(-c5ccccc5)n4)CC3)C2=O)cc1F` [Example 17, (S)-3-(2,5-difluoro-4-(methylsulfonyl)phenoxy)-1-(1-(5-phenyl-1,2,4-oxadiazol-3-yl)piperidin-4-yl)pyrrolidin-2-one], the “cAMP production in HEK-293 cells” value came out at 28.3 nmol and the Fold over baseline is 4.8.

Regarding `CC(C)c1nc(N2CCC(N3CC[C@H](Oc4ccc(S(C)(=O)=O)cc4F)C3=O)CC2)no1` [Example 18, (S)-3-(2-fluoro-4-(methylsulfonyl)phenoxy)-1-(1-(5-isopropyl-1,2,4-oxadiazol-3-yl)piperidin-4-yl)pyrrolidin-2-one], the “cAMP production in HEK-293 cells” value came out at 19.4 nmol and the Fold over baseline came out at 3.7.
